# In patent US20090172831A1, “Methods for the production of plants resistant to HPPD herbicides” (Syngenta Limited, priority 2000, published 2009):
# Read-outs that look alike come from different tables or passages of the source.
# Legend:
# [1] = biological target: Wheat HPPD (Triticum aestivum, UniProt A0A3B6NLC6); experiment: Dissociation of enzyme/inhibitor complexes by exchange with 14C-labelled inhibitor (koff; Kd = koff/kon); assay type: binding; conditions: for koff: − glycerol
# From the text: (§1) Herbicidal inhibitors of HPPD are found here to have generally low values of koff (in the range less than 0.0003 s^−1, often less than 0.000001 s^−1). It will be appreciated that many suitable methods known in the art for determining such low koff values are suitable for working the current invention. These include measuring rates of exchange of radio or otherwise labelled inhibitors either with or away from the enzyme inhibitor complex. For example enzyme inhibitor complexes can readily be prepared by incubating HPPD preparations with labelled or unlabelled inhibitor and then, after suitable periods, optionally rapidly separating the thus formed enzyme inhibitor complex from excess inhibitor by any suitable method such as ultrafiltration, binding to filters or exchange down a gel filtration column. Exchange reactions with the, thus prepared enzyme inhibitor complex is then initiated by addition of, as appropriate, excess labelled or unlabelled inhibitor. HPPD preparations suitable for use in the methods of the current invention are relatively unpurified, buffer-exchanged, supernatant fractions of spun crude lysates of E. coli strains engineered to express the HPPD enzyme of interest at a level of, typically, about 0.25-10% of the total soluble protein. Many methods such as radiometric, fluorimetric, NMR, fluorescence depolarisation, EPR, Mossbauer, UV/VIS spectrophotometry etc. or phonon resonance can, in principle, be used to monitor the enzyme/ligand exchange reactions and, particularly in this case where the enzyme contains an iron atom at the ligand binding site. Optionally, the monitoring method may be continuous (as, for example, with scintillation proximity/bead-based methods) or, discontinuous, based upon collection of data at various timepoints wherein samples are removed and the bound and unbound label components rapidly separated and quantitated.
# (§2) Values of koff can suitably be calculated by computer fitting based upon is numerical integration of the exchange data along with information on the active-site concentration of HPPD and upon kon values obtained as described below. […] In any event, koff values are always here calculated from the rate of the major slow exchange reaction. It will be appreciated that within the scope of the current invention many methods of making the desired kinetic comparisons are possible without explicit or rigorous determination of off rates but, based upon the same underlying principle, will achieve the same selection result.
# The dissociation rates (off rates) of inhibitors selected from Formula 1 and/or 2 and/or 3 and/or 4 from the complexes that they form with test and control HPPD enzymes are suitably measured in a number of ways. Thus, for example, the rates of dissociation of mesotrione, a compound selected from Formula 1 and of the diketonitrile of isoxaflutole, a compound selected from Formula 3 from their respective complexes with, test, wheat HPPD and with, control, Arabidopsis HPPD are compared. The method and results from a typical test are as follows.
# ^14C mesotrione is of specific activity 1.12 GBq/mmol. This is ˜95% pure radiochemically by TLC and based upon the proportion of material tight-binding to HPPD. Arabidopsis and, (test), wheat HPPD are each diluted to a concentration of ˜0.45 and 0.54 μM, respectively into 1.6 ml of 50 mM Bis-Tris propane buffer at pH 7.0 containing 25% glycerol, 25 mM sodium ascorbate and 3 mg/l of bovine catalase (Sigma C3155˜50,000 units/mg) containing […] ^14C mesotrione and left to react at 25 C for 2.5-3 h. Following this initial binding reaction, exchange reactions are initiated by addition of cold mesotrione to a final concentration of 60 μM and 200 μl aliquots removed at various times to rapid chromatography down a NAP5 gel filtration column equilibrated in 50 mM BTP at pH 7 containing 0.1 M KCl, separation into fractions containing protein-bound or free radiolabel and liquid scintillation counting. […]
# [2] = biological target: T1, Arabidopsis HPPD (Arabidopsis thaliana, UniProt P93836); experiment: as above; assay type: binding; conditions: for koff: − glycerol
# T1 construct: made in house; host or cells: E. coli BL21 (DE3) codon+ RP
# T1 sequence (P93836 1-445): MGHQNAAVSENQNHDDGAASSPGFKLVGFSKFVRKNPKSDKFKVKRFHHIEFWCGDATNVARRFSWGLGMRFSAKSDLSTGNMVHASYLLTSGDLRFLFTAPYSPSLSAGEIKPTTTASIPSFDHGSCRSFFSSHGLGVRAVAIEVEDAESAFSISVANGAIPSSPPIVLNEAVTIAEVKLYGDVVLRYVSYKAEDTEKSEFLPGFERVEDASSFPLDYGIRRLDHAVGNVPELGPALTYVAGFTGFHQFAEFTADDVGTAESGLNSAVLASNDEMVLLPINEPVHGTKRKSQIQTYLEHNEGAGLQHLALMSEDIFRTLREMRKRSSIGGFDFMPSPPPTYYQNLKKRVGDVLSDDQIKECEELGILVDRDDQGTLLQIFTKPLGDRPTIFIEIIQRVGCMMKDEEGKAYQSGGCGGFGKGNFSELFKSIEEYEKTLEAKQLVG
# Protocol: as §1, with “It” for “Herbicidal inhibitors of HPPD are found here to have generally low values of koff (in the range less than 0.0003 s^−1, often less than 0.000001 s^−1). It”, “HPPD preparations suitable for use in the methods of the current invention are relatively unpurified, buffer-exchanged, supernatant fractions of spun crude lysates of E. coli strains engineered to express the HPPD enzyme of interest at a level of, typically, about 0.25-10% of the total soluble protein.” left out
# Values of koff can suitably be calculated by computer fitting based upon is numerical integration of the exchange data along with information on the active-site concentration of HPPD and upon kon values obtained as described below. […] In any event, koff values are always here calculated from the rate of the major slow exchange reaction.
# ^14C mesotrione is of specific activity 1.12 GBq/mmol. […] Following this initial binding reaction, exchange reactions are initiated by addition of cold mesotrione to a final concentration of 60 μM and 200 μl aliquots removed at various times to rapid chromatography down a NAP5 gel filtration column equilibrated in 50 mM BTP at pH 7 containing 0.1 M KCl, separation into fractions containing protein-bound or free radiolabel and liquid scintillation counting.
# Nevertheless, here, for practical purposes, koff values are always here calculated from the rate of the major slow exchange reaction.
# Not all test inhibitors are readily available in a radiolabelled form.
# [3] = biological target: T1, Arabidopsis HPPD; experiment: Inhibition of HPPD (E. coli extract) after pre-incubation with inhibitor; assay type: biochemical; conditions: read-out: inhibition (relative to controls)
# Protocol: (§3) Qualitative measurements of the differences in Kd values in respect of different HPPD inhibitors are obtained by pre-incubating enzyme with inhibitor and, then, subsequently, measuring the % inhibition. For example HPPD is isolated from maize seedlings, part purified and assayed by similar methods to those described by Schulz et al 1993 (FEBS LETS. 318, 162-166) and by Secor (1994) in Plant Physiol. 106, 1429-1433. Assays are run for 30 minutes and started with addition of radiolabelled hydroxyphenylpyruvate (final concentration ˜0.1-0.2 mM) following a 20-30 min period over which inhibitor is pre-incubated with the part-purified enzyme.
# Using the same assay method but using HPPD from Arabidopis (obtained from E. coli cells transformed to express the Arabidopsis HPPD and prepared as an E. coli extract similar to the methods described by Garcia et al in Plant Physiol (1999) 119, 1507-1516) the following levels of inhibition (relative to controls) are observed with the following doses of herbicide versus Arabidopsis HPPD.
# [4] = biological target: P. fluorescens HPPD (Pseudomonas fluorescens, UniProt A0ACG8AE61); experiment: Dissociation of enzyme/inhibitor complexes by exchange with 14C-labelled inhibitor (koff; Kd = koff/kon); assay type: binding
# From the text: as §1
# as §2, with “result. […]” for “result.”
# Not all test inhibitors are readily available in a radiolabelled form. A more general method of measuring off rates is to first form the complex with unlabelled test inhibitor, to rapidly exchange the complex free of excess unlabelled inhibitor and to then start the exchange reaction by addition of an excess of a standard labelled inhibitor, the kinetic properties of which are already known. The reaction is then monitored and the relative proportions of bound and unbound label determined at various times. […] The latter is the method of choice when the rate of exchange is fast (t½<3 h).
# In, variants of the above methods, off rates are measured either in the presence or absence of ˜25% v/v glycerol. In the presence of glycerol values obtained are generally ˜1.5-3× slower than in its absence although sometimes the change is outside this range or, even, in the other direction. Further examples of data obtained are depicted in the following Table 3.
# Crude Extracts of recombinant E. coli strains expressing, in the one case, a control HPPD (from Arabidopsis) and, in the other, one or more test HPPD sequences are prepared as described in the preceding example. The titre of active sites and enzyme activity are also defined and measured as described in the preceding examples. […]
# [5] = test system: maize HPPD; experiment: Inhibition of part purified HPPD after pre-incubation with inhibitor; assay type: biochemical
# Protocol: as §3
# The following levels of inhibition (relative to controls) are observed with the following doses of herbicide versus maize HPPD
# [6] = value obtained + glycerol (in parentheses), read-out: Kd
# [7] = without glycerol, Kd = koff/kon, read-out: Kd
# [8] = Kd, without glycerol, Kd = koff/kon
# Chain of P. fluorescens HPPD (A0ACG8AE61 entry or part of it): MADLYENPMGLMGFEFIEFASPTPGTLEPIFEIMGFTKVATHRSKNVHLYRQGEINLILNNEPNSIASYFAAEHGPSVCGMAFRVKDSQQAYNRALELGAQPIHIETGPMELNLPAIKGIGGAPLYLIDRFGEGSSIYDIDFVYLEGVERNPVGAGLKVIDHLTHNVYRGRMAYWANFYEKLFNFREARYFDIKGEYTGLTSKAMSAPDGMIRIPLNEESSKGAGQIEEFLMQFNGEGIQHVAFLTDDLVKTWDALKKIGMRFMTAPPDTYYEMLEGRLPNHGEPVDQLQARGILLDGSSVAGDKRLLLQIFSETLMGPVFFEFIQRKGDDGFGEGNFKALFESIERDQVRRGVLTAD
# Chain of Wheat HPPD (A0A3B6NLC6 entry or part of it): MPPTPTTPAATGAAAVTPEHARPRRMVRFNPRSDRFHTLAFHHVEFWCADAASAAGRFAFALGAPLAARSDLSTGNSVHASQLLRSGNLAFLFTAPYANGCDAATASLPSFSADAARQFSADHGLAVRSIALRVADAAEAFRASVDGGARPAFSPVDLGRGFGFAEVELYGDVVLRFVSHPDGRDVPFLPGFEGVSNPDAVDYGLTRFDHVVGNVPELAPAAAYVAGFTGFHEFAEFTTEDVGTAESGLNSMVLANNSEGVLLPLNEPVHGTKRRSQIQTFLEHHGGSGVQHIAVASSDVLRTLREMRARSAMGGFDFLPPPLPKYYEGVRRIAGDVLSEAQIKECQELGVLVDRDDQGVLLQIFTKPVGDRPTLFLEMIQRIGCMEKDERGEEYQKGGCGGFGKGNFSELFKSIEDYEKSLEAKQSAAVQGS
smiles,measurement,setting,value
"CCOCc1nc(C(F)(F)F)ccc1C(=O)C1C(=O)C2CCC(C2)C1=O (stereo not shown) [Structure III, 3-[[2-(ethoxymethyl)-6-(trifluoromethyl)-3-pyridinyl]carbonyl]-bicyclo[3.2.1]-octane-2,4-dione]",koff,[1]; read-out: koff,> 0.0002 s⁻¹
same,koff,[2],1.1e-05 s⁻¹
"CS(=O)(=O)c1cc(C(F)(F)F)ccc1C(=O)C(C#N)C(=O)C1CC1 (stereo not shown) [Structure IV, 1-[2-(methanesulfonyl)-4-(trifluoromethyl)phenyl]-3-cyclopropyl-2-cyano-propane-1,3-dione, reference compound]",Kd,[1]; [6],0.596 nM
same,Kd,[1]; [7],0.885 nM
same,inhibition at 0.001 µM,[3]; 1 nM,20%
same,inhibition at 0.01 µM,[3]; 10 nM,90%
same,inhibition at 0.1 µM,[3]; 100 nM,95%
same,inhibition at 1 µM,[3]; 1000 nM,95%
same,Kd,"[4]; in water at pH 7.0 and at 25 C, read-out: dissociation constant (Kd)",12.2 nM
same,Kd,[4]; [6],1.1 nM
same,Kd,[4]; [7],12.2 nM
"Cc1cc(C#N)ccc1C(=O)C1C(=O)C(C)(C)C(=O)C(C)(C)C1=O [Structure VI, 2-[2-methyl-4-cyanobenzoyl]-4,4,6,6-tetramethylcyclohexane-1,3,5-trione]",Kd,[1]; [8],0.45 nM
same,Kd,[2],0.025 nM
same,Kd,[4]; [7],> 20 nM
"Cc1nc(C(F)(F)F)ccc1C(=O)C1C(=O)C(C)(C)C(=O)C(C)(C)C1=O [Structure VII, 3-[[2-methyl-6-(trifluoromethyl)-3-pyridinyl]carbonyl]-4,4,6,6-tetramethylcyclohexane-1,3,5-trione]",Kd,[1]; [8],0.175 nM
same,koff,[1],8.3e-06 s⁻¹
same,Kd,[2],0.032 nM
same,koff,[2],1e-06 s⁻¹
same,koff,[4]; − glycerol,> 0.0003 s⁻¹
"CCC1CC(=O)C(C(=O)C2CC2)C(=O)C1(C)S(C)(=O)=O (stereo not shown) [Structure VIII, 2-[cyclopropylcarbonyl]-5-ethyl-4-methanesulfonyl-4-methylcyclohexane-1,3-dione]",strength of inhibition,[2]; used for pre-incubation in control experiments,weak inhibitor
"CS(=O)(=O)c1ccc(C(=O)C2C(=O)CCCC2=O)c(Cl)c1 [sulcotrione, 2-(2-Chloro-4-methanesulphonylbenzoyl)-cyclohexane-1,3-dione]",inhibition at 0.001 µM,[3],57%
same,inhibition at 0.01 µM,[3],96%
same,inhibition at 0.1 µM,[3],100%
same,inhibition at 1 µM,[3],100%
same,fold less active against the maize enzyme than structure IV,[5],~100 fold
same,inhibition (relative to controls),[5]; 10 nM,8%
same,inhibition (relative to controls),[5]; 100 nM,51%
same,inhibition (relative to controls),[5]; 1000 nM,83%
